# What was measured:
# THP-1 cells = experiment: THP-1 soluble protein assay (LPS-stimulated human monocytic THP-1 cells); format: cell-based; settings: Homo sapiens, LPS-stimulated THP-1 cells, read-out: % Inhib. @ 3µM THP
# Source text: Mitogenic stimulation of THP-1 cells cause differentiation into macrophage like cells with concomitant secretion of tumor necrosis factor (TNF-a) and TNF receptor (TNF-R p75/80 and TNF-R p55/60) and Interleukin-8 (IL-8), among other proteins. In addition, non-stimulated THP-1 cells shed both the p75/80 and the p55/60 receptors over time. The release of membrane bound TNF-α and possibly TNF-R p75/80 and TNF-R p55/60, but not IL-8, is mediated by an enzyme called TNF-a converting enzyme or TACE.
# THP-1 cells (from ATCC) are a human monocytic cell line which were obtained from the peripheral blood of a person with acute monocytic leukemia. They can be grown in culture and differentiated into macrophage like cells by stimulation with mitogens.
# Each vial of cells are cultured for about two weeks prior to being used for an assay and then are used for only 4 to 6 weeks to screen compounds.
# Cell exposure to DMSO was limited to 0.1 % final concentration. […] Compounds can be evaluated for their effect on basal (non-stimulated) shedding of the receptors by replacing the LPS with […] of THP-1 media. Plates are placed into an incubator set at 5% CO2 and at 37°C. After 4 hours of incubation, […] of tissue culture supernatant (TCS) is removed for use in an TNF-a ELISA. Following 24 hours of incubation, […] of TCS is removed and used for analysis in TNF-R p75/80, TNF-R p55/60 and IL-8 ELISAs.
# In addition, at the 24 hours timepoint, and the cells for each treatment group are collected by resuspension in 500 µl/well of THP-1 media and transferred into a FACS tube. […] The samples are run on a Becton Dickinson FaxCaliber FLOW cytometry machine and the amount of dye taken up by each cell is measured in the high red wavelength (FL3). Only cells with compromised membranes (dead or dying) can take up PI. The percent of live cells is calculated by the number of cells not stained with PI, divided by the total number of cells in the sample. The viability values calculated for the drug treated groups were compared to the viability value calculated for the vehicle treated mitogen stimulated group ("vehicle positive control") to determine the "percent change from control". This "percent change from control" value is an indicator of drug toxicity.
# The quantity of soluble TNF-a, TNF-R p75/80 and TNF-R p55/60 and IL-8 in the TCS of the THP-1 cell cultures are obtained with commercially available ELISAs from R&D Systems, by extrapolation from a standard curve generated with kit standards. The number of cells that either take up or exclude PI are measured by the FLOW cytometry machine and visualized by histograms using commercially available Cytologic software for each treatment group including all controls.
# Biological variability in the magnitude of the response of THP-1 cell cultures requires that experiments be compared on the basis of percent change from "vehicle positive control" for each drug concentration. Percent change in each soluble protein evaluated from the "vehicle positive control" was calculated for each compound concentration with the following formula: % Change =(pg/ml(compound) - pg/ml (veh pos control))/(pg/ml (veh pos control) - pg/ml(veh neg control))x 100 [formula]
# For the soluble protein (TNF-a, p75/80, p55/60, IL-8) studies under stimulated conditions, the mean pg/ml of duplicate wells were determined and the results expressed as percent change from "vehicle positive control". For the soluble protein (p75/80 and p55/60 receptors) studies under non-stimulated conditions, the mean pg/ml of duplicate wells were determined and the results expressed as percent change from "vehicle positive control" utilizing the following formula: % Change =(pg/ml (compound neg control) - pg/ml (veh neg control)/(pg/ml (veh neg control))X 100 [formula]
# IC50 values for each compound are calculated by non-linear regression analysis using customized software utilizing the JUMP statistical package.
# MMP-1 = biological target: T1, MMP-1 (Homo sapiens, UniProt P03956); experiment: MMP-1 inhibition (thiopeptide or fluorescent peptide substrate); format: biochemical; settings: plain number = IC50
# T1 sequence (P03956 100-469): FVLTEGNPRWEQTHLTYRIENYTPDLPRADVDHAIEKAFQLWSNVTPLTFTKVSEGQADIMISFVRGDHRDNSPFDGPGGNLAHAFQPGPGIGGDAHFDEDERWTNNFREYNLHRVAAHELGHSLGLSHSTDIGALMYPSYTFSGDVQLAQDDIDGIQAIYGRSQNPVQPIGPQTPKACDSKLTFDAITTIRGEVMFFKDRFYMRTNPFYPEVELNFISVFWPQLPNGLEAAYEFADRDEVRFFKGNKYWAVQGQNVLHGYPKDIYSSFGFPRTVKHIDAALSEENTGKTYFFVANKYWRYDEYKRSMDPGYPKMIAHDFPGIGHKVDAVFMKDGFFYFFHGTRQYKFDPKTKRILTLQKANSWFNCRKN
# Protocol: (§1) The enzyme activity is measured by the rate of the color increase. The thiopeptide substrate is made up fresh as a 20 mM stock in 100% DMSO and the DTNB is dissolved in 100% DMSO as a 100 mM stock and stored in the dark at room temperature. Both the substrate and DTNB are diluted together to 1 mM with substrate buffer (50 mM HEPES pH 7.5, 5 mM CaCl2) before use. The stock of enzyme is diluted with buffer (50 mM HEPES, pH 7.5, 5 mM CaCl2, 0.02% Brij) to the desired final concentration.
# (§2) Alternatively, a fluorescent peptide substrate is used. In this test procedure, the peptide substrate contains a fluorescent group and a quenching group. Upon cleavage of the substrate by an MMP, the fluorescence that is generated is quantitated on the fluorescence plate reader. The assay is run in HCBC assay buffer (50mM HEPES, pH 7.0, 5 mM Ca^+2, 0.02% Brij, 0.5% Cysteine), with human recombinant MMP-1, MMP-9, or MMP-13. The substrate is dissolved in methanol and stored frozen in 1 mM aliquots. For the assay, substrate and enzymes are diluted in HCBC buffer to the desired concentrations. Compounds are added to the 96 well plate containing enzyme and the reaction is started by the addition of substrate.
# (§3) For either the thiopeptide or fluorescent peptide test procedures, the slope of the line is calculated and represents the reaction rate. The linearity of the reaction rate is confirmed (r^2 >0.85). The mean (x±sem) of the control rate is calculated and compared for statistical significance (p<0.05) with drug-treated rates using Dunnett's multiple comparison test.
# MMP-13 = MMP-13 (Homo sapiens, UniProt P45452); experiment: MMP-13 inhibition (thiopeptide or fluorescent peptide substrate); format: biochemical
# Protocol: as §1, §2, §3
# MMP-9 = MMP-9 (Homo sapiens, UniProt P14780); experiment: MMP-9 inhibition (thiopeptide or fluorescent peptide substrate); format: biochemical
# Protocol: as §1, §2, §3
# [1] = biological target: TNF-α converting enzyme (TACE) (Homo sapiens, UniProt P78536); experiment: TACE inhibition (fluorescent peptidyl substrate); format: biochemical; settings: read-out: IC50 (nM) or % Inhibition (µM) TACE
# Protocol: Using 96-well black microtiter plates, each well receives a solution composed of 10 µL TACE (final concentration 1µg/mL), 70µL Tris buffer, pH 7.4 containing 10% glycerol (final concentration 10 mM), and 10 µL of test compound solution in DMSO (final concentration 1µM, DMSO concentration <1%) and incubated for 10 minutes at room temperature. The reaction is initiated by addition of a fluorescent peptidyl substrate (final concentration 100 µM) to each well and then shaking on a shaker for 5 sec.
# The reaction is read (excitation 340 nm, emission 420 nm) for 10 min. and the increase in fluorescence over time is plotted as a linear line. The slope of the line is calculated and represents the reaction rate.
# The linearity of the reaction rate is confirmed (r^2 >0.85). The mean (x±sem) of the control rate is calculated and compared for statistical significance (p<0.05) with drug-treated rates using Dunnett's multiple comparison test.
# Sequence of MMP-9 (P14780 94-707): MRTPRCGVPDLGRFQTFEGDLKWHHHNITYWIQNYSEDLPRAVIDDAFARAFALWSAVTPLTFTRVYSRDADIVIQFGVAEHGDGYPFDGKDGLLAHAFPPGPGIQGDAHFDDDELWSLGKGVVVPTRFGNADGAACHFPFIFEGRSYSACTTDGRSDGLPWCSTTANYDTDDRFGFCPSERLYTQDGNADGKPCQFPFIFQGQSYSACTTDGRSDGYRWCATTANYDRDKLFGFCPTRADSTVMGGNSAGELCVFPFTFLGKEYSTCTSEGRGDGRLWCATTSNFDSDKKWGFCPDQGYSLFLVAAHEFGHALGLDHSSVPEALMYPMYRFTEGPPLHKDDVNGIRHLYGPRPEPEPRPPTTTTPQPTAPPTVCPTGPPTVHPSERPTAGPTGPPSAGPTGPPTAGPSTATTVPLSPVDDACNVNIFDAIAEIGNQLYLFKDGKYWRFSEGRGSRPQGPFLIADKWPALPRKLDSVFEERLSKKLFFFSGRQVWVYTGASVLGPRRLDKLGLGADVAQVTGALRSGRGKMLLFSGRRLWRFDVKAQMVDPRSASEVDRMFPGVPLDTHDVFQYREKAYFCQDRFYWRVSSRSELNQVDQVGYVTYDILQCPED
# Sequence of TNF-α converting enzyme (TACE) (P78536 215-824, species assumed): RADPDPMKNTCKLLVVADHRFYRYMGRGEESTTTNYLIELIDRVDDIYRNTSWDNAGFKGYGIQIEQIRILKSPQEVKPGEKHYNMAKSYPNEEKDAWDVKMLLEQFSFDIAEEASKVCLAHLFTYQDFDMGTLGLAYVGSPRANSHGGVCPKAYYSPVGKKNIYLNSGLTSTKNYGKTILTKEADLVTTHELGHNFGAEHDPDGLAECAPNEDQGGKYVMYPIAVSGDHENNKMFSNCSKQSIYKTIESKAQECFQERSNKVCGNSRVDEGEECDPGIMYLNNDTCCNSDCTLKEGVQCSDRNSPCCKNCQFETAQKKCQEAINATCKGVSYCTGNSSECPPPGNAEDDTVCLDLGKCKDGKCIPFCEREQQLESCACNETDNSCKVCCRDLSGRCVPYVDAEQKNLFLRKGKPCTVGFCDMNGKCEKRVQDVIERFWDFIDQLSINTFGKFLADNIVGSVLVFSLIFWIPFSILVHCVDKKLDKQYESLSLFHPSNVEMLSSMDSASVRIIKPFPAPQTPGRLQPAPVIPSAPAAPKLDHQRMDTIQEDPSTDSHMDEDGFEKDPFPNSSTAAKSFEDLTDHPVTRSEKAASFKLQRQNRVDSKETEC
structure (smiles),measurement,setting,value
"CC#CCOc1ccc(S(=O)(=O)N(C)c2c(C)cc(I)cc2C(=O)NO)cc1 [Example 63, 2-[(4-But-2-ynyloxy-benzenesulfonyl)-methyl-amino]-N-hydroxy-5-iodo-3-methyl-benzamide]",inhibition at 3 µM,THP-1 cells,87%
same,IC50,MMP-1,901 nM
same,IC50,MMP-13,275 nM
same,IC50,MMP-9,840 nM
same,IC50,[1],16 nM
